In US12576155B2, “Senolytic and antiinflammatory prodrugs and methods of use thereof” (priority 2019, dated 2026):

What was measured:
[1] = test system: senescent lung cells from 23-month-old mice; experiment: Cell viability, mouse lung fibroblasts of old and young mice; type: cell-based; conditions: senescent lung cells from 23-month-old mice vs non-senescent lung cells from young mice; increasing doses
Description: Mouse embryonic fibroblasts (MEFs) were isolated from E13.5 embryos as described previously (Zhao et al., Cell Stem Cell 23, 31-45 e37([…])). Newborn mouse skin fibroblasts (NBFs) were isolated from the skin of day 1-3 newborn mice. Adult mouse lung fibroblasts were isolated from 2-month-old and 23-month-old mice. Briefly, mouse embryonic tissues, skin and lung were obtained from described donor mice. Then, these tissues were minced with forceps and incubated in 2 mg/ml collagenase IV (Gibco) for 2-4 hours at 37° C. After enzyme treatment, cells were collected by centrifugation and resuspended in high-glucose DMEM (Gibco) supplemented with 10% fetal bovine serum (FBS) and 1% penicillin-streptomycin (Gibco). The three types of mouse primary cells were all cultured in a humidified incubator at 37° C. and 5% CO2.
To test the viability of senescent and non-senescent cells treated with SSK1, cells were stained with a mixture of Hoechst 33342 and propidium iodide (PI) (CA1120, Solarbio) to distinguish living and dead cells. After treatment with the small molecules, the cell culture medium was removed, and the cells were washed once with PBS. […] The plate was incubated at 4° C. for 30 min and observed on a fluorescence microscope or automatic cell imaging system. Viable cells were quantified using a MD Image Xpress Micro XL (Molecular Devices).

[2] = test system: SARS-CoV-2-infected rhesus macaques; experiment: SARS-CoV-2-infected rhesus macaques, early-stage SSK1 treatment (2.0 mg/kg once daily for 7 days from 0 dpi); type: in vivo; conditions: for Clinical observation: Body weight change (%) / Clinical observation: Increased temperature: 2.0 mg/kg

`CC(=O)OCC1O[C@@H](Oc2ccc(COC(=O)Nc3ccn([C@@H]4O[C@H](CO)C(O)C4(F)F)c(=O)n3)cc2[N+](=O)[O-])C(OC(C)=O)C(OC(C)=O)[C@H]1OC(C)=O` (some centres unmarked) [SSK1] was tested. Which “Selective elimination of senescent cells (viable cells)” value [1] did it give?
The value was “specifically eliminated these senescent cells”.

And the “Progression of pulmonary infiltrates on chest X-ray” value ([2]; 6 dpi compared to 3 dpi)?
The value was “no progression”.

What about the “Clinical observation: Body weight change (%)” value ([2]; M1 adult 5-year) of the same molecule?
Its value is “+4.62%”.

And the “Clinical observation: Increased temperature” value ([2]; M1 adult 5-year)?
Its value is “light”.

And the “Clinical observation: Body weight change (%)” value ([2]; M2 adult 5-year)?
The value was “+1.64%”.

And the “Clinical observation: Increased temperature” value ([2]; M2 adult 5-year)?
The value was “light”.

And the “Large necrotic lesions in the livers at necropsy” value ([2]; SSK1-treated group)?
The value was “not in the SSK1-treated group”.

What about the “Lung histopathology (H&E)” value ([2]; SSK1-treated group) of the same molecule?
Its value is “minimally thickened alveolar septum and focal edema”.

What about the “Serum level of IL-18” value ([2]; SSK1-treated group) of the same molecule?
The value was “increased significantly”.

What about the “Virus shedding (virus load in nose, throat, anal swabs and blood, RT-qPCR)” value ([2]; SSK1-treated group) of the same molecule?
The value was “no delay but even faster reduction in virus shedding”.

What about the Body temperature ([2]; SSK1-treated group, 2 mg/kg) of the same molecule?
Its Body temperature is “relatively stable”.

And the Body weight ([2]; SSK1-treated group, 2 mg/kg, 0 to 7 dpi)?
Its Body weight is “remained constant”.

What about the “Airway narrowing and mucinous secretions (AB-PAS staining)” value ([2]; SSK1 treatment) of the same molecule?
The value was “recovered the airway narrowing and extensive mucinous secretions”.

What about the “Gross lung lesions at necropsy” value ([2]; animal M1) of the same molecule?
Its value is “Some brown punctate lesions”.

And the “Pulmonary hemorrhages (H&E)” value ([2]; animal M1)?
Its value is “local pulmonary hemorrhages”.

What about the “Ground-glass opacification in the lungs on X-ray” value ([2]; animal M1, 2 mg/kg, 3 dpi) of the same molecule?
The value was “Ground-glass opacification appeared”.

And the “Gross lung lesions at necropsy” value ([2]; animal M2)?
Its value is “No obvious lung lesions”.

What about the “Signs of pneumonia on X-ray” value ([2]; animal M2, 2 mg/kg) of the same molecule?
The value was “no signs of pneumonia on X-ray throughout the experiment”.

And the “Concentrations of inflammatory cytokines GM-CSF, IL-1β, IL-12, MIP-1A and TNF-α in lung tissues” value ([2]; vs vehicle)?
The value was “lower”.

And the “Viral load in the respiratory tract tissues and multiple organs” value ([2]; vs vehicle-treated group)?
The value was “grossly lower”.
